How the values were obtained:
[1] = system: Spinach2-Streptavidin aptamer (Streptavidin (SA)) (RNA, aptamer) GAUGUAACUGAAUGAAAUGGUGAAGGACGGGUCCACGACCGACCAGAAUCAUGCAAGUGCGUAAGAUAGUCGCGGGCCGGGGUUGUUGAGUAGAGUGUGAGCUCCGUAACUAGUUACAUC; test: dye fluorescence, plate reader; conditions: 200 mM KCl, 10 mM NaCl, 1 mM MgCl2; 100 mM Tris pH 7.5, 25 °C, 14 h; 10 μM RNA, 2 μM dye; with streptavidin
[2] = system: Tyr1M1 (RNA, aptamer) GGAUGUAACUGAAUGAAAUGGUGAAGGACGGGUCCAGCCCUUGGCAGUCAACUCGUGCGAUCGUGAAAACGGGGCAAGAUGGCCUUACAGCGGUCAAUACGGGGGUCAUCAGAUAGGGAGGCCAGGAUAUGUUGAGUAGAGUGUGAGCUCCGUAACUAGUUACAUC; test: dye fluorescence in droplets; conditions: 200 mM KCl, 10 mM NaCl, 10 mM MgCl2; 100 mM Tris pH 7.5; 30 μM RNA, 3 μM dye; salmon sperm DNA; with secreted tyrosine
[3] = system: Tyr1M1 (RNA, aptamer) GGAUGUAACUGAAUGAAAUGGUGAAGGACGGGUCCAGCCCUUGGCAGUCAACUCGUGCGAUCGUGAAAACGGGGCAAGAUGGCCUUACAGCGGUCAAUACGGGGGUCAUCAGAUAGGGAGGCCAGGAUAUGUUGAGUAGAGUGUGAGCUCCGUAACUAGUUACAUC; test: Spinach sensor fluorescence turn-on; conditions: 125 mM KCl, 5 mM MgCl2; 50 mM Tris-HCl pH 7.5; 2 μM DFHBI or DFHBI-1T; 1 mM ligand; 10 μM RNA

binding [1]	binding [2]	binding [3]	Compound
yes	yes	–	CC1=N/C(=C\c2cc(F)c(O)c(F)c2)C(=O)N1CC(F)(F)F
–	–	yes	N[C@@H](Cc1ccc(O)cc1)C(=O)O

From PMC5569033 (2017)
